According to ChEMBL document CHEMBL3508140 (2016):

Columns and labels:
[1] = Recovery of 7-deoxy epirubicinol aglycone following intraperitoneal epirubicin at 4 mg.Kg-1 dose in mouse; assay type: ADME, organism-based, CD-1, Plasma; settings: in vivo, ip
[2] = Recovery of 7-deoxy epirubicinol aglycone following intravenous epirubicin at 4 mg.Kg-1 dose in rat; assay type: ADME, organism-based, SD, Plasma; settings: in vivo
[3] = Recovery of 7-deoxy epirubicinol aglycone following intraperitoneal epirubicin at 4 mg.Kg-1 dose in hamster; assay type: ADME, organism-based, Cricetulus griseus, Plasma; settings: chinese hamster, in vivo, ip
[4] = Recovery of 7-deoxy epirubicinol aglycone following intravenous epirubicin at 4 mg.Kg-1 dose in rabbit; assay type: ADME, organism-based, Oryctolagus cuniculus, New Zealand White, Plasma; settings: in vivo
[5] = Recovery of 7-deoxy epirubicinol aglycone following intravenous epirubicin at 1.5 mg.Kg-1 dose in man; assay type: ADME, organism-based, Plasma; settings: human, in vivo
[6] = Detection of 7-deoxydoxorubicinol aglycone in plasma following single intravenous epirubicin at 10 mg.Kg-1 dose in female mouse bearing colon tumor; assay type: ADME, organism-based, BALB/c; settings: in vivo
[7] = Detection of 7-deoxydoxorubicinol aglycone in plasma following single intravenous doxorubicin at 10 mg.Kg-1 dose in female mouse bearing colon tumor; assay type: ADME, organism-based, BALB/c; parameters: dose 10 mg.Kg-1, dosed compound id 2.46809e+06, dosed compound name Doxorubicin, gender F, regimen Single, route intravenous, sampling time 48 h; settings: in vivo
[8] = Detection of 7-deoxydoxorubicinol aglycone in heart following single intravenous epirubicin at 10 mg.Kg-1 dose in female mouse bearing colon tumor; assay type: ADME, organism-based, BALB/c; settings: in vivo
[9] = Detection of 7-deoxydoxorubicinol aglycone in heart following single intravenous doxorubicin at 10 mg.Kg-1 dose in female mouse bearing colon tumor; assay type: ADME, organism-based, BALB/c; parameters: dose 10 mg.Kg-1, dosed compound id 2.46809e+06, dosed compound name Doxorubicin, gender F, regimen Single, route intravenous, sampling time 48 h; settings: in vivo
[10] = Detection of 7-deoxydoxorubicinol aglycone in tumor following single intravenous epirubicin at 10 mg.Kg-1 dose in female mouse bearing colon tumor; assay type: ADME, organism-based, BALB/c, Neoplasm; settings: in vivo
[11] = Detection of 7-deoxydoxorubicinol aglycone in tumor following single intravenous doxorubicin at 10 mg.Kg-1 dose in female mouse bearing colon tumor; assay type: ADME, organism-based, BALB/c, Neoplasm; parameters: dose 10 mg.Kg-1, dosed compound id 2.46809e+06, dosed compound name Doxorubicin, gender F, regimen Single, route intravenous, sampling time 48 h; settings: in vivo
[12] = AUC values (0-48 h) of 7-deoxy doxorubicin-aglycone in plasma following single intravenous doxorubicin at 10 mg.Kg-1 dose in female mouse bearing colon tumor; assay type: ADME, organism-based, BALB/c; parameters: time < 48 hr, dose 10 mg.Kg-1, dosed compound id 2.46809e+06, dosed compound name Doxorubicin, gender F, regimen Single, route intravenous, sampling time 48 h; settings: in vivo
[13] = AUC values (0-48 h) of 7-deoxy doxorubicin-aglycone in heart following single intravenous doxorubicin at 10 mg.Kg-1 dose in female mouse bearing colon tumor; assay type: ADME, organism-based, BALB/c; parameters: time < 48 hr, dose 10 mg.Kg-1, dosed compound id 2.46809e+06, dosed compound name Doxorubicin, gender F, regimen Single, route intravenous, sampling time 48 h; settings: in vivo
[14] = AUC values (0-48 h) of 7-deoxy doxorubicin-aglycone in tumor following single intravenous doxorubicin at 10 mg.Kg-1 dose in female mouse bearing colon tumor; assay type: ADME, organism-based, BALB/c, Neoplasm; parameters: time < 48 hr, dose 10 mg.Kg-1, dosed compound id 2.46809e+06, dosed compound name Doxorubicin, gender F, regimen Single, route intravenous, sampling time 48 h; settings: in vivo
[15] = AUC values (0-48 h) of 7-deoxy epirubicinol aglycone in plasma following single intravenous epirubicin at 10 mg.Kg-1 dose in female mouse bearing colon tumor; assay type: ADME, organism-based, BALB/c; settings: in vivo
[16] = AUC values (0-48 h) of 7-deoxy epirubicinol aglycone in heart following single intravenous epirubicin at 10 mg.Kg-1 dose in female mouse bearing colon tumor; assay type: ADME, organism-based, BALB/c; settings: in vivo
[17] = AUC values (0-48 h) of 7-deoxy epirubicinol aglycone in tumor following single intravenous epirubicin at 10 mg.Kg-1 dose in female mouse bearing colon tumor; assay type: ADME, organism-based, BALB/c, Neoplasm; settings: in vivo

COc1cccc2c1C(=O)c1c(O)c3c(c(O)c1C2=O)C[C@@](O)(C(O)CO)CC3 (some centres not stated)
Compound recovery [1]: 20 10^-9M
Compound recovery [2]: 4.2 10^-9M
Compound recovery [3]: 21 10^-9M
Compound recovery [4]: 4.2 10^-9M
Compound recovery [5]: 25 10^-9M
Compound recovery [6]: OUTCOME = Observed
Compound recovery [7]: OUTCOME = Observed
Compound recovery [8]: OUTCOME = Observed
Compound recovery [9]: OUTCOME = Observed
Compound recovery [10]: OUTCOME = Observed
Compound recovery [11]: OUTCOME = Observed
AUC [12]: 83.3 nmol·min/mL
AUC [13]: 218 nmol·min/g
AUC [14]: 204 nmol·min/g
AUC [15]: 53.9 nmol·min/mL
AUC [16]: 66 nmol·min/g
AUC [17]: 99 nmol·min/g
